Data published in patent US20250368625A1, “PIPERAZINES” (Grünenthal GmbH, priority 2024, published 2025).
Like-named read-outs stand apart in the source and are kept apart here.

Target: T1, human SSTR4 (Homo sapiens, UniProt P31391)
T1 construct: expressed in transfected cells; host or cells: CHO-K1
Test: hSSTR4 cAMP assay (cAMP accumulation, LANCE Ultra cAMP kit, CHO-K1 human SSTR4 Gi cell line)
Type: cell-based
Protocol: cAMP accumulation assay using a CHO-K1 human SSTR4 Gi cell line.
Quantification of intracellular cAMP was performed using the LANCE Ultra cAMP assay kit from Revvity according to the manufacturer's instructions. CHO-K1 human SSTR4 Gi cell were either seeded in a density of 3K cells per well into a 384 well plate and incubated at 37° C. and 5% CO2 for 18-20 h or a stock of frozen cells were defrosted and seeded in a density of 5K cells per well without any further cultivation directly prior to the assay in a total volume of 5 μL in stimulation buffer. For pre-cultured cells, medium was replaced with 5 μL stimulation buffer before the assay. Cells were then stimulated with forskolin (final concentration 10 μM) and test compound (SSTR4 agonist) in increasing concentrations in duplicates for 30 min at 25° C. After stimulation, cells were lysed by addition of 10 μL of detection buffer (provided with the kit) and cell lysates were further diluted to ensure final cAMP concentrations fitted well into the dynamic range of the test kit. 10 μL of the diluted lysates were then added to respective wells of an OptiPlate-384 microplate. Thereafter, 5 μL of 4× Eu-cAMP tracer working solution was added, followed by addition of 5 μL of ULight-anti-cAMP working solution. The plate was then incubated for 1 h at 25° C. before reading on a TR-FRET microplate instrument. Data were normalized to cAMP high (forskolin only) and low control (forskolin+100 nM SST14) before fitting to a 4-Paramter logistic function.
All data was generated according to the cAMP assay conditions described above in at least duplicate and results are averaged and rounded to two significant figures.

[1] = functional agonism, forskolin 10 μM stimulated CHO-K1 human SSTR4 Gi cells, 30 min at 25° C., at least duplicate, averaged, read-out: hSSTR4 EC50

T1 sequence (P31391 whole entry): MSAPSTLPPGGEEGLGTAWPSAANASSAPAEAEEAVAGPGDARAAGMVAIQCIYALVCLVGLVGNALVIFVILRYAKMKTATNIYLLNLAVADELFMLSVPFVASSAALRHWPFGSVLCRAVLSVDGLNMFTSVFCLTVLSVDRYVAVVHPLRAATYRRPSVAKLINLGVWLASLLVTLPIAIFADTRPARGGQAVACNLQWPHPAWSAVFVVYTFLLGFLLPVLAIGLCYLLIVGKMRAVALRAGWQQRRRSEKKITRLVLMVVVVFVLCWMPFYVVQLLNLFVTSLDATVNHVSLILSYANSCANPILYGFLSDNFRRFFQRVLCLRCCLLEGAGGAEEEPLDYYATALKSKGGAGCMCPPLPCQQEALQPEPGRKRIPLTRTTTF

| SMILES | EC50 (morpholinyl matched molecular pairs (from WO 2016 075240), same cAMP assay conditions, read-out: hSSTR4 EC50 nM (Comparative Example)) | EC50 [1] |
| --- | --- | --- |
| CC(C)(NC(=O)[C@@H]1CNCCO1)c1nnc2c(Cl)cccn12 | > 10000 nM | – |
| Cc1cccn2c(C(C)(C)NC(=O)C3CNCCN3Cc3ncccn3)ncc12 (racemic) [SC-001, rac-N-(2-(8-methylimidazo[1,5-a]pyridin-3-yl)propan-2-yl)-1-(pyrimidin-2-ylmethyl)piperazine-2-carboxamide] | – | 13 nM |
| Cc1cccn2c(C(C)(C)NC(=O)[C@@H]3CNCCN3C(C)C)ncc12 (racemic) [SC-002, rac-1-isopropyl-N-(2-(8-methylimidazo[1,5-a]pyridin-3-yl)propan-2-yl)piperazine-2-carboxamide] | – | 1.1 nM |
| Cc1cccn2c(C(C)(C)NC(=O)C3CNCCN3Cc3ccccn3)ncc12 (racemic) [SC-003, rac-N-(2-(8-methylimidazo[1,5-a]pyridin-3-yl)propan-2-yl)-1-(pyridin-2-ylmethyl)piperazine-2-carboxamide] | – | 3.3 nM |
| Cc1cccn2c(C(C)(C)NC(=O)C3CNCCN3Cc3cccnn3)ncc12 (racemic) [SC-004, rac-N-(2-(8-methylimidazo[1,5-a]pyridin-3-yl)propan-2-yl)-1-(pyridazin-3-ylmethyl)piperazine-2-carboxamide] | – | 7.4 nM |
| Cc1cccn2c(C(C)(C)NC(=O)C3CNCCN3Cc3cncnc3)ncc12 (racemic) [SC-005, rac-N-(2-(8-methylimidazo[1,5-a]pyridin-3-yl)propan-2-yl)-1-(pyrimidin-5-ylmethyl)piperazine-2-carboxamide] | – | 2.3 nM |
| Cc1cccn2c(C(C)(C)NC(=O)C3CNCCN3Cc3ccn(C)n3)ncc12 (racemic) [SC-006, rac-1-((1-methyl-1H-pyrazol-3-yl)methyl)-N-(2-(8-methylimidazo[1,5-a]pyridin-3-yl)propan-2-yl)piperazine-2-carboxamide] | – | 3.7 nM |
| Cc1cccn2c(C(C)(C)NC(=O)[C@@H]3CNCCN3Cc3cnccn3)ncc12 (racemic) [SC-007, rac-N-(2-(8-methylimidazo[1,5-a]pyridin-3-yl)propan-2-yl)-1-(pyrazin-2-ylmethyl)piperazine-2-carboxamide] | – | 2.2 nM |
| Cc1cccn2c(C(C)(C)NC(=O)C3CNCCN3Cc3ccncn3)ncc12 (racemic) [SC-008, rac-N-(2-(8-methylimidazo[1,5-a]pyridin-3-yl)propan-2-yl)-1-(pyrimidin-4-ylmethyl)piperazine-2-carboxamide] | – | 2.9 nM |
| CC(=O)N1CCNCC1C(=O)NC(C)(C)c1ncc2c(C)cccn12 (racemic) [SC-009, rac-1-acetyl-N-(2-(8-methylimidazo[1,5-a]pyridin-3-yl)propan-2-yl)piperazine-2-carboxamide] | – | 3400 nM |
| Cc1cccn2c(C(C)(C)NC(=O)C3CNCCN3C(=O)c3cnn(C)c3)ncc12 (racemic) [SC-010, rac-1-(1-methyl-1H-pyrazole-4-carbonyl)-N-(2-(8-methylimidazo[1,5-a]pyridin-3-yl)propan-2-yl)piperazine-2-carboxamide] | – | 3500 nM |
| Cc1cccn2c(C(C)(C)NC(=O)[C@@H]3CNCCN3C(=O)C3CC(F)(F)C3)ncc12 (racemic) [SC-011, rac-1-(3,3-difluorocyclobutane-1-carbonyl)-N-(2-(8-methylimidazo[1,5-a]pyridin-3-yl)propan-2-yl)piperazine-2-carboxamide] | – | 1300 nM |
| Cc1cccn2c(C(C)(C)NC(=O)C3CNCCN3C(=O)C3CC3)ncc12 (racemic) [SC-012, rac-1-(cyclopropanecarbonyl)-N-(2-(8-methylimidazo[1,5-a]pyridin-3-yl)propan-2-yl)piperazine-2-carboxamide] | – | 6600 nM |
| Cc1cccn2c(C(C)(C)NC(=O)C3CNCCN3C(=O)C3COC3)ncc12 (racemic) [SC-013, rac-N-(2-(8-methylimidazo[1,5-a]pyridin-3-yl)propan-2-yl)-1-(oxetane-3-carbonyl)piperazine-2-carboxamide] | – | 350 nM |
| Cc1cccn2c(C(C)(C)NC(=O)C3CNCCN3CC3COC3)ncc12 (racemic) [SC-014, rac-N-(2-(8-methylimidazo[1,5-a]pyridin-3-yl)propan-2-yl)-1-(oxetan-3-ylmethyl)piperazine-2-carboxamide] | – | 3.1 nM |
| Cc1cccn2c(C(C)(C)NC(=O)C3CNCCN3c3ccccc3)ncc12 (racemic) [SC-093, rac-N-(2-(8-methylimidazo[1,5-a]pyridin-3-yl)propan-2-yl)-1-phenylpiperazine-2-carboxamide] | – | 0.86 nM |

| SMILES | EC50 (morpholinyl matched molecular pairs (from WO 2016 075240), same cAMP assay conditions, read-out: hSSTR4 EC50 nM (Comparative Example)) | EC50 [1] |
| --- | --- | --- |
| Cc1cccn2c(C(C)(C)NC(=O)[C@@H]3CNCCN3)ncc12 [SC-015, (S)-N-(2-(8-methylimidazo[1,5-a]pyridin-3-yl)propan-2-yl)piperazine-2-carboxamide] | – | 9.5 nM |
| Cc1cccn2c(C(C)(C)NC(=O)[C@@H]3CNCCN3C)ncc12 [SC-016, (S)-1-methyl-N-(2-(8-methylimidazo[1,5-a]pyridin-3-yl)propan-2-yl)piperazine-2-carboxamide] | – | 0.44 nM |
| Cc1cccn2c(C(C)(C)NC(=O)[C@@H]3CNCCN3CC(F)(F)F)ncc12 [SC-017, (S)-N-(2-(8-methylimidazo[1,5-a]pyridin-3-yl)propan-2-yl)-1-(2,2,2-trifluoroethyl)piperazine-2-carboxamide] | – | 0.2 nM |
| Cc1cccn2c(C(C)(C)NC(=O)[C@@H]3CNCCN3CC(C)(C)F)ncc12 [SC-018, (S)-1-(2-fluoro-2-methylpropyl)-N-(2-(8-methylimidazo[1,5-a]pyridin-3-yl)propan-2-yl)piperazine-2-carboxamide] | – | 1.2 nM |
| Cc1cccn2c(C(C)(C)NC(=O)[C@@H]3CNCCN3CC(C)(F)F)ncc12 [SC-019, (S)-1-(2,2-difluoropropyl)-N-(2-(8-methylimidazo[1,5-a]pyridin-3-yl)propan-2-yl)piperazine-2-carboxamide] | – | 0.58 nM |
| Cc1cccn2c(C(C)(C)NC(=O)[C@@H]3CNCCN3CC3(C(F)(F)F)CC3)ncc12 [SC-020, (S)-N-(2-(8-methylimidazo[1,5-a]pyridin-3-yl)propan-2-yl)-1-((1-(trifluoromethyl)cyclopropyl)methyl)piperazine-2-carboxamide] | – | 0.27 nM |
| Cc1cccn2c(C(C)(C)NC(=O)[C@@H]3CNCCN3C3CC(F)(F)C3)ncc12 [SC-021, (S)-1-(3,3-difluorocyclobutyl)-N-(2-(8-methylimidazo[1,5-a]pyridin-3-yl)propan-2-yl)piperazine-2-carboxamide] | – | 3.1 nM |
| Cc1cccn2c(C(C)(C)NC(=O)[C@@H]3CNCCN3Cc3ccnc(C4CC4)c3)ncc12 [SC-022, (S)-1-((2-cyclopropylpyridin-4-yl)methyl)-N-(2-(8-methylimidazo[1,5-a]pyridin-3-yl)propan-2-yl)piperazine-2-carboxamide] | – | 0.09 nM |
| Cc1cccn2c(C(C)(C)NC(=O)[C@@H]3CNCCN3CC(C)(C)O)ncc12 [SC-023, (S)-1-(2-hydroxy-2-methylpropyl)-N-(2-(8-methylimidazo[1,5-a]pyridin-3-yl)propan-2-yl)piperazine-2-carboxamide] | – | 9 nM |
| Cc1cccn2c(C(C)(C)NC(=O)[C@@H]3CNCCN3CC3(C)CCC(F)(F)CC3)ncc12 [SC-024, (S)-1-((4,4-difluoro-1-methylcyclohexyl)methyl)-N-(2-(8-methylimidazo[1,5-a]pyridin-3-yl)propan-2-yl)piperazine-2-carboxamide] | – | 0.46 nM |
| Cc1cccn2c(C(C)(C)NC(=O)[C@@H]3CNCCN3Cc3cccc(C(F)(F)F)c3)ncc12 [SC-025, (S)-N-(2-(8-methylimidazo[1,5-a]pyridin-3-yl)propan-2-yl)-1-(3-(trifluoromethyl)benzyl)piperazine-2-carboxamide] | – | 0.05 nM |
| Cc1cccn2c(C(C)(C)NC(=O)[C@@H]3CNCCN3Cc3ccccc3F)ncc12 [SC-026, (S)-1-(2-fluorobenzyl)-N-(2-(8-methylimidazo[1,5-a]pyridin-3-yl)propan-2-yl)piperazine-2-carboxamide] | – | 0.12 nM |
| Cc1cccn2c(C(C)(C)NC(=O)[C@@H]3CNCCN3Cc3ccc(F)cc3)ncc12 [SC-027, (S)-1-(4-fluorobenzyl)-N-(2-(8-methylimidazo[1,5-a]pyridin-3-yl)propan-2-yl)piperazine-2-carboxamide] | – | 0.08 nM |
| Cc1cccn2c(C(C)(C)NC(=O)[C@@H]3CNCCN3Cc3ccc(C(F)(F)F)cc3)ncc12 [SC-028, (S)-N-(2-(8-methylimidazo[1,5-a]pyridin-3-yl)propan-2-yl)-1-(4-(trifluoromethyl)benzyl)piperazine-2-carboxamide] | – | 0.17 nM |
| Cc1cccn2c(C(C)(C)NC(=O)[C@@H]3CNCCN3Cc3cccc(F)c3)ncc12 [SC-029, (S)-1-(3-fluorobenzyl)-N-(2-(8-methylimidazo[1,5-a]pyridin-3-yl)propan-2-yl)piperazine-2-carboxamide] | – | 0.11 nM |
| Cc1cccn2c(C(C)(C)NC(=O)[C@@H]3CNCCN3Cc3ccc(C(F)(F)F)nc3)ncc12 [SC-030, (S)-N-(2-(8-methylimidazo[1,5-a]pyridin-3-yl)propan-2-yl)-1-((6-(trifluoromethyl)pyridin-3-yl)methyl)piperazine-2-carboxamide] | – | 0.48 nM |
